Measured values as given in US20220177520A1, “PEPTIDES INHIBITING ANDROGEN RECEPTOR ACTIVITY, AND COSMETICS COMPOSITION USING SAME” (SUPADELIXIR INC., priority 2019, published 2022).

Tests used:
androgen receptor = assay: PSA expression in DHT-treated prostate cancer cells (Western blot); assay type: cell-based; settings: LNCaP cells, DHT 20 nM plus AR Pep1 1, 10, 100 μM, 24 hours, versus DHT only; FIG. 1
Experimental: 1. Prostate cancer cells (LNCaP) were prepared at a density of 5×10^6 cells per well, treated with DHT at a concentration of 20 nM and with AR Pep1 at a concentration of 1, 10, 100 μM respectively, then cultured in an incubator at 37° C. in the presence of 5% CO2 for 24 hours. As a control group, one with no treatment at all and one treated only with DHT were used. The cancer cells were washed with PBS three times, and lysed with 1% NP40 lysis buffer (1% Nonidet P40, 0.1 M NaCl, 0.05 M tris (pH 8.0), 5 mM EDTA) containing […] PMSP (phenylmethylsulfonyl fluoride), 1 μg/ml pepstatin A, 10 μg/ml leupeptin, 1 μg/ml aprotinin and 1 mM Na3VO4.
2. The cell lysate was quantified using Bradford assay to prepare a protein sample for electrophoresis.
Immunoprecipitates were subjected to 12.5% polyacrylamide gel electrophoresis, then the unfolded protein was transferred onto a nitrocellulose membrane, treated with a blocking solution (Tris-buffered saline (TBS) containing 0.05% Tween 20 and 3% bovine serum albumin) for about one hour at room temperature. Then, the membrane was suspended in TBS buffer containing Anti-PSA polyclonal antibody (Santa cruz, CA, USA) for two hours and washed with TBS buffer containing 0.05% Tween 20. […]

AR and POL II = biological target: T1, AR and POL II (Homo sapiens, UniProt P10275); assay: Physical binding of AR and POL II in DHT-treated human keratinocytes (in situ PLA); assay type: cell-based; settings: HaCaT cells, DHT 20 nM plus AR Pep1 20 nM, 1, 10, 100 μM, 24 hours, versus DHT only; FIG. 2
T1 construct: Human keratinocytes (HaCaT) were prepared at a density of 4.5×10^4 cells per well, treated with DHT; endogenous in cells; host or cells: HaCaT human keratinocytes
T1 sequence (P10275 1-920): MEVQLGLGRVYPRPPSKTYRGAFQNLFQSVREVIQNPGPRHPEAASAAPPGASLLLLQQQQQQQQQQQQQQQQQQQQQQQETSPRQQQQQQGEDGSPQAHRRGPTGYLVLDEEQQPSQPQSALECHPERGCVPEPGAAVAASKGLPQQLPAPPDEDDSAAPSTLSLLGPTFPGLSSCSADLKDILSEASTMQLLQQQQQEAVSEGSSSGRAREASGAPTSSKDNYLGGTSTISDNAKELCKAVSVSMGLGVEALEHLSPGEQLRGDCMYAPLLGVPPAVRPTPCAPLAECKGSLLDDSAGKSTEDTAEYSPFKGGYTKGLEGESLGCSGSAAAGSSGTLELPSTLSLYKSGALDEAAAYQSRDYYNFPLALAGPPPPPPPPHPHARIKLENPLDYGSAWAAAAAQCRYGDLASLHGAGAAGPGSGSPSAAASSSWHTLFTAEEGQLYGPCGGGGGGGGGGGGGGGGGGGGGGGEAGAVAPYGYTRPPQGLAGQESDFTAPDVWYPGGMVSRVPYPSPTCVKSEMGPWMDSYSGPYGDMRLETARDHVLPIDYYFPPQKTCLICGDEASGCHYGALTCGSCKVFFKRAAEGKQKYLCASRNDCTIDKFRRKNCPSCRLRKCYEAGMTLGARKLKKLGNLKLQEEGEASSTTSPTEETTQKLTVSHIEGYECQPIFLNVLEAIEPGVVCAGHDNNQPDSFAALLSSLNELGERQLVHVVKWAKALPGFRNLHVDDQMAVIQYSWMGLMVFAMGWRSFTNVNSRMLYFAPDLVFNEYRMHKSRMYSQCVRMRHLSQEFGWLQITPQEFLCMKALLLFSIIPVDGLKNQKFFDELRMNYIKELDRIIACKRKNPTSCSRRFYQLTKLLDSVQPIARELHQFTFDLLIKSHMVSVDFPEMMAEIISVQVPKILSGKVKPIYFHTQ
Experimental: 1. Human keratinocytes (HaCaT) were prepared at a density of 4.5×10^4 cells per well, treated with DHT at a concentration of 20 nM and with AR Pep1 at a concentration of 20 nM, 1, 10, 100 μM respectively, then cultured in an incubator at 37° C. in the presence of 5% CO2 for 24 hours. As a control, one with no treatment at all and one treated only with DHT were used. The cells in each well were washed with PBS, fixed in 2% formaldehyde for five minutes, and treated with 0.1% TritonX-100 for five minutes to enhance antibody permeability into cells. Then, Anti-AR polyclonal antibody (Santa cruz, USA) and Anti-POL II monoclonal antibody (Santa cruz, USA) were added, PLA probe was applied using In situ PLA kit (Sigma-Aldrich), and steps of hybridization, ligation, amplification, and mounting were performed.
2. Luminescence signals (PLA signals) detected from each cell were measured with a confocal laser microscope (Olympus fluoview FW1000; Olympus, Japan), physical interaction between the AR and POL II antibodies was quantified.

## Asp-Lys-Phe (DKF; Peptide 1) [AR Pep1]
Androgen receptor
  expression of prostate-specific antigen (PSA): expression of the PSA was reduced
AR and POL II
  physical interaction between the AR and POL II (PLA signals): the increase in that interaction was reduced
